Laboratory results taken from US20200316023A1, “Method Of Producing Bacterially Derived Indole-3-Propionic Acid And Compositions Comprising Same” (The Procter & Gamble Company, priority 2019, published 2020).

Assay: pharmacokinetic studies of IPA dose versus serum IPA levels
Assay type: in vivo
Details: dose of from about 5 to about 10 mg of IPA
Description: In some aspects, the composition can comprise from about 5 to about 10 mg of IPA per dose of the composition.

O=C(O)CCc1c[nH]c2ccccc12 [IPA, Indole-3-propionic acid]
IPA levels in serum relative to endogenous baseline: increase IPA levels in serum beyond endogenous baseline values
